Assays:
[1] = tested on: Staphylococcus aureus NCTC 10788; test: Zone of inhibition, seeded Mueller-Hinton agar plug-hole assay; format: cell-based; details: 10 mg compound + 200 ul sterile water per 8 mm plug hole, 37° C., 24 hours, triplicates averaged
Protocol: (§1) Pseudomonas aeruginosa NCIMB 8626 and Staphylococcus aureus NCTC 10788 were harvested. Serial 1:10 dilutions were performed to give a final concentration of 10^8 bacteria/ml. Further dilutions were made for an inoculum count, down to […], with the number of bacteria/ml determined using the pour plate method.
(§2) Two large assay plates were then set up and 140 ml of Mueller-Hinton agar was added evenly to the large assay plates and allowed to dry (15 minutes). A further 140 ml of agar was seeded with the corresponding test organism and poured over the previous agar layer. Once the agar had set (15 minutes), the plate was dried at 37° C. for 30 minutes with the lid removed. 8 mm plugs were removed from the plate by biopsy punch.
(§3) In triplicate, 10 mg of the compounds prepared in Examples 1-3 were placed onto each plug hole followed by 200 ul sterile water. The plates were then sealed and incubated at 37° C. for 24 hours. The size of the microbial, including bacterial, zone cleared was measured using a Vernier calliper gauge, triplicates were averaged: […]

[2] = tested on: Pseudomonas aeruginosa NCIMB 8626; test: as above; format: cell-based; details: 10 mg compound + 200 ul sterile water per 8 mm plug hole, 37° C., 24 hours, triplicates averaged
Protocol: as §1, §2, §3

Row | Substance | Zone of Inhibition [1] [mm] | Zone of Inhibition [2] [mm]
1 | Silver(III) Chlorhexidine (1,1′-hexamethylenebis[5-(p-chlorophenyl)biguanide] Complex [Example 1] | 6.4 | 5.4
2 | Silver(III) o-tolybiguanide Complex [Example 3] | 8.4 | 7.4

From patent publication US9751833B2, “Antimicrobial biguanide metal complexes” (Smith & Nephew PLC, priority 2005, dated 2017)
